Assay results published in the supplement of paper PMC10307832.

Experiments:
Test in all cases: relative viability (nuclei count vs DMSO), 5 days (fraction); higher = more cells survive
[1] = compound: C1=CC(=CC=C1C2=CC(=C(S2)NC(=O)N)C(=O)N)F [TPCA-1] + Cc1nc(NC(=O)N2CCC[C@H]2C(N)=O)sc1-c1ccnc(C(C)(C)C(F)(F)F)c1 [Alpelisib] (partner 2 µM)
Summary of the method: (§1)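 Cells from lung cancer lines were seeded into 1536-well plates and, one day later, dosed by pin tool. Treatments were either a single drug or a fixed dose of an anchor drug with five library-drug doses (not always all listed) in √10 steps. After 5 days, nuclei were stained in a one-step fixation (final 0.05% Triton X-100, 1% formaldehyde, 1 ug/ml Hoechst) and counted on 4× images, and relative viability is the treated-to-vehicle nuclei ratio, as the median of duplicate plates.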

[2] = compound: C1=CC(=CC=C1C2=CC(=C(S2)NC(=O)N)C(=O)N)F [TPCA-1] + CC1(C)CCC(c2ccc(Cl)cc2)=C(CN2CCN(c3ccc(C(=O)NS(=O)(=O)c4ccc(N[C@H](CCN5CCOCC5)CSc5ccccc5)c(S(=O)(=O)C(F)(F)F)c4)cc3)CC2)C1 [Navitoclax] (partner 0.5 µM)
Summary of the method: as §1

[3] = compound: C[C@]12O[C@H](C[C@]1(O)CO)n1c3ccccc3c3c4c(c5c6ccccc6n2c5c31)CNC4=O [Lestaurtinib] + CC(=O)Nc1cccc(-n2c(=O)n(C3CC3)c(=O)c3c(Nc4ccc(I)cc4F)n(C)c(=O)c(C)c32)c1 [Trametinib] (partner 0.02 µM)
Summary of the method: as §1

[4] = compound: C1/C(=C\C2=CC=CS2)/C(=O)/C(=C/C3=CC=CS3)/C1 + COc1cc2c(Oc3ccc(NC(=O)C4(C(=O)Nc5ccc(F)cc5)CC4)cc3F)ccnc2cc1OCCCN1CCOCC1 [Foretinib] (partner 0.25 µM)
Summary of the method: as §1

Cell Line	relative viability ([1]; first compound 0.04 µM)	relative viability ([1]; first compound 0.1265 µM)	relative viability ([1]; first compound 0.4 µM)	relative viability ([1]; first compound 1.265 µM)	relative viability ([1]; first compound 4 µM)	relative viability ([2]; first compound 0.04 µM)	relative viability ([2]; first compound 0.1265 µM)	relative viability ([2]; first compound 0.4 µM)	relative viability ([2]; first compound 1.265 µM)	relative viability ([2]; first compound 4 µM)	relative viability ([3]; first compound 0.005 µM)	relative viability ([3]; first compound 0.01581 µM)	relative viability ([3]; first compound 0.05 µM)	relative viability ([3]; first compound 0.1581 µM)	relative viability ([3]; first compound 0.5 µM)	relative viability ([4]; first compound 0.2 µM)	relative viability ([4]; first compound 0.6325 µM)	relative viability ([4]; first compound 2 µM)	relative viability ([4]; first compound 6.325 µM)	relative viability ([4]; first compound 20 µM)
HCC-44	0.876	0.765	0.838	0.703	0.66	0.973	0.983	1.04	0.927	0.915	1.04	1.04	1.04	1.16	0.593					
HCC-78	0.36	0.315	0.362	0.311	0.262	0.973	0.653	0.726	0.652	0.582	0.832	0.807	0.578	0.522	0.284	0.581	0.602	0.56	0.444	0.481
HCC-366	0.481	0.362	0.352	0.378	0.185	1.01	0.942	1.14	0.952	1	0.365	0.489	0.399	0.342	0.149	0.919	0.915	0.99	0.849	0.904
HCC-827	1.09	0.933	1.08	0.905	0.491	0.996	1.04	1.04	1	0.683	0.536	0.527	0.573	0.456	0.458	1.04	0.939	1.02	0.96	1
HOP-62	1.05	0.602	0.898	0.874	0.914	0.982	1.06	1.02	0.899	0.809	0.409	0.446	0.389	0.351	0.319	1.08	1.07	1.07	0.922	1.09
IA-LM	0.912	0.619	0.729	0.892	0.677	0.855	0.595	0.72	0.617	0.678						1.17	1.24	1.21	1.08	1.06
LC-2-ad	0.937	0.775	0.99	0.82	0.326	0.361	0.377	0.414	0.357	0.11	0.932	1.02	0.792	0.569	0.505	0.971	0.941	0.99	0.817	0.89
LCLC-97TM1	0.249	0.241	0.223	0.248	0.187	0.394	0.494	0.446	0.259	0.238		0.196	0.199	0.157	0.226	0.965	0.97	0.995	0.797	0.943
